Reference: BindingDB's records for doi:10.1016/j.bmcl.2004.02.008 (Astrazeneca, 2004)

biological target: Cyclin-dependent kinase 2/G1/S-specific cyclin-E1 (Homo sapiens, UniProt P24941); assay: CDK Assay; conditions: pH 7; 22 °C
Method: The kinase activity was assayed using an in vitro scintillation proximity assay (SPA) for measuring incorporation of [gamma-33P] ATP into GST-Rb.

Point of comparison: `c1ccc(Nc2nccc(-c3cnc4cccnn34)n2)cc1` [4-{imidazo[1,2-a]pyridazin-3-yl}-N-phenylpyrimidin-2-amine], IC50 1000 nM. Against it:
- CCSc1ccc2ncc(-c3ccnc(Nc4ccc(S(=O)(=O)NCCOC)cc4)n3)n2c1 [4-({4-[6-(ethylsulfanyl)imidazo[1,2-a]pyridin-3-yl]pyrimidin-2-yl}amino)-N-(2-methoxyethyl)benzene-1-sulfonamide] — lower, < 3 nM
- COCCNS(=O)(=O)c1ccc(Nc2nccc(-c3cnc4ccc(Br)cn34)n2)cc1 [4-[(4-{6-bromoimidazo[1,2-a]pyridin-3-yl}pyrimidin-2-yl)amino]-N-(2-methoxyethyl)benzene-1-sulfonamide] — lower, < 3 nM
- COCCNS(=O)(=O)c1ccc(Nc2nccc(-c3cnc4ccc(C#N)cn34)n2)cc1 [4-[(4-{6-cyanoimidazo[1,2-a]pyridin-3-yl}pyrimidin-2-yl)amino]-N-(2-methoxyethyl)benzene-1-sulfonamide] — lower, < 3 nM
- COCCN(C)S(=O)(=O)c1ccc(Nc2nccc(-c3cnc4cccnn34)n2)cc1 [4-[(4-{imidazo[1,2-a]pyridazin-3-yl}pyrimidin-2-yl)amino]-N-(2-methoxyethyl)-N-methylbenzene-1-sulfonamide] — 1.7-fold lower, 600 nM
- COCCNS(=O)(=O)c1ccc(Nc2nccc(-c3cnc4cccnn34)n2)cc1 [4-[(4-{imidazo[1,2-a]pyridazin-3-yl}pyrimidin-2-yl)amino]-N-(2-methoxyethyl)benzene-1-sulfonamide] — lower, < 3 nM
- CNS(=O)(=O)c1ccc(Nc2nccc(-c3cnc4cccnn34)n2)cc1 [4-[(4-{imidazo[1,2-a]pyridazin-3-yl}pyrimidin-2-yl)amino]-N-methylbenzene-1-sulfonamide] — lower, < 3 nM
- NS(=O)(=O)c1ccc(Nc2nccc(-c3cnc4cccnn34)n2)cc1 [4-[(4-{imidazo[1,2-a]pyridazin-3-yl}pyrimidin-2-yl)amino]benzene-1-sulfonamide] — lower, < 3 nM
- COCCNS(=O)(=O)c1ccc(Nc2ncc(Sc3ccccc3)c(-c3cnc4ccccn34)n2)cc1 [4-[(4-{imidazo[1,2-a]pyridin-3-yl}-5-(phenylsulfanyl)pyrimidin-2-yl)amino]-N-(2-methoxyethyl)benzene-1-sulfonamide] — higher, > 10000 nM
- COCCNS(=O)(=O)c1ccc(Nc2nccc(-c3c(C)nc4cccnn34)n2)cc1 [N-(2-methoxyethyl)-4-[(4-{2-methylimidazo[1,2-a]pyridazin-3-yl}pyrimidin-2-yl)amino]benzene-1-sulfonamide] — 330-fold lower, 3 nM
- COCCNS(=O)(=O)c1ccc(Nc2nccc(-c3cnc4ccc(OC)nn34)n2)cc1 [N-(2-methoxyethyl)-4-[(4-{6-methoxyimidazo[1,2-a]pyridazin-3-yl}pyrimidin-2-yl)amino]benzene-1-sulfonamide] — 1.7-fold lower, 600 nM
- CN(C)CCNS(=O)(=O)c1ccc(Nc2nccc(-c3cnc4cccnn34)n2)cc1 [N-[2-(dimethylamino)ethyl]-4-[(4-{imidazo[1,2-a]pyridazin-3-yl}pyrimidin-2-yl)amino]benzene-1-sulfonamide] — 120-fold lower, 8 nM
- CN(C)CCCNS(=O)(=O)c1ccc(Nc2nccc(-c3cnc4cccnn34)n2)cc1 [N-[3-(dimethylamino)propyl]-4-[(4-{imidazo[1,2-a]pyridazin-3-yl}pyrimidin-2-yl)amino]benzene-1-sulfonamide] — lower, < 3 nM
